Test results as given in US12048686B2, “Compositions and methods for activating NRF2-dependent gene expression” (The University of Chicago, priority 2018, dated 2024).

Columns and labels:
20 line panel = experiment: Viability in 20 cell line panel correlated with CCLE mRNA levels; format: cell-based
Protocol: FIG. 36A-B. Viability assays performed in each cell line with compound treatment with CBR-470-1. Concentrations ranging from 0.1 to 30 micromolar for 48 hr. Viability was measured using Cell titer glo ATP quantification assay. Representative curves for three cell lines at 48 are shown on the left in (A). Table of 20 cell line IC50 values are shown in (B).
It was analyzed whether 1,3-BPG, which is directly metabolized by PGK1, could be involved in signaling to the KEAP1-NRF2 pathway via phosphoglyceryl-lysine (pgK) modification of KEAP1. […] Viability assays were performed in IMR32, OVCAR3, and A549 cell lines with compound treatment with CBR-470-1. Concentrations ranging from 0.1 to 30 micromolar for 48 hr. Viability was measured using Cell titer glo ATP quantification assay. Representative curves for three cell lines at 48 are shown in (FIG. 36A). Table of 20 cell line IC50 values are shown in (FIG. 36B).
Each point in FIG. 37 represents the correlation value (R^2) between cell line IC50 value (i.e. sensitivity) to CBR-470 plotted against the relative mRNA level (Z-score) for that cell line, and all other cell lines in the 20 line panel. mRNA levels were curated from the cancer cell line encyclopedia (CCLE).

IMR32 cells = experiment: IMR32 viability with co-treatments (cell titer glo); format: cell-based; settings: IMR32 cells, 48 hrs, combinations of doses with BBGC
Protocol: FIG. 38. PGK1 toxicity can be rescued with metabolites that are involved with GSH biosynthesis and quenching of reactive oxygen species and methylglyoxal. […] IMR32 cells treated for 48 hr in presence of indicated drugs.
PGK1 toxicity can be rescued with metabolites that are involved with GSH biosynthesis and quenching of reactive oxygen species and methylglyoxal.
IMR32 cells were treated for 48 hrs with CBR-470-1 and/or BBGC at combinations of doses in a synergy matrix (FIG. 41). […] Viability measured using cell titer glo assay (Promega). Viability decreased at higher concentrations of CBR-470-1 and BBGC start at 5 uM. […] Sensitivity of cell lines to direct inhibition of GLO1 (which detoxifies MGO) is generally correlated with sensitivity to PGK1 inhibition with CBR-470-1-consistent with MGO buildup playing a role in toxicity.

IMR32 = experiment: Seahorse XF96 global bioenergetics in IMR32 cells; format: cell-based; settings: IMR32, 1 hr
Protocol: (§1) Cells were plated for 24 hrs., then incubated with the indicated doses of CBR-470 for 1 hr. Under CBR-470-1 treated conditions, cellular ECAR and OCR was recorded for CBR-470 alone, CBR-470+10 mM Glucose, and CBR-470+3 μM Oligomycin.
as §1, with “Genetic manipulation of central glycolytic targets GLO1 and PGK1 regulate viability in the very sensitive colorectal cancer cell line HCT116. […] (FIG. 42). […] Cells” for “Cells”

GAPDH = GAPDH (Homo sapiens, UniProt P04406); experiment: GAPDH equilibrium in the GAPDH/PGK1 coupled assay; format: biochemical; settings: without PGK1
Source text: FIG. 6A-D. CBR-470-1 inhibits PGK1 in vitro and in situ. (a) Schematic of the GAPDH/PGK1 coupled assay. Pre-equilibration of the GAPDH reaction (top left) results in an NAD^+/NADH equilibrium, which upon addition of PGK1 and ADP pulls the reaction to the right producing more NADH. Monitoring NADH absorbance after addition of PGK1 (bottom right) can be used to monitor PGK1 activity in the forward direction (right). […] (c, d) Relative level of central metabolites in IMR32 cells treated with viral knockdown of PGK1 for 72 hours (c) (n=4) and with CBR-470-1 relative DMSO alone for the indicative times (d) (n=3). Each metabolite is normalized to the control condition at each time point. Data shown represent mean±SEM of biologically independent samples.
Recombinant PGK1 assay. PGK1 enzymatic activity in the forward direction was measured with a coupled enzymatic assay^34. Three PGK1 conditions were prepared by dissolving recombinant PGK1 in potassium phosphate buffer (10 mM KH2PO4, 10 mM MgSO4, pH 7.0), and transferring the aliquots of PGK1 solution to the microtubes being treated with same amount of DMSO and indicated concentrations of CBR-470-1. Final concentration of PGK1 is 20 ng/mL and DMSO is 1% for each sample. […] The change in absorbance at 340 nm at room temperature was measured every 20 seconds for 45 minutes, by Tecan Infinite M200 plate reader. […]

Sequence of GAPDH (P04406 whole entry, species assumed): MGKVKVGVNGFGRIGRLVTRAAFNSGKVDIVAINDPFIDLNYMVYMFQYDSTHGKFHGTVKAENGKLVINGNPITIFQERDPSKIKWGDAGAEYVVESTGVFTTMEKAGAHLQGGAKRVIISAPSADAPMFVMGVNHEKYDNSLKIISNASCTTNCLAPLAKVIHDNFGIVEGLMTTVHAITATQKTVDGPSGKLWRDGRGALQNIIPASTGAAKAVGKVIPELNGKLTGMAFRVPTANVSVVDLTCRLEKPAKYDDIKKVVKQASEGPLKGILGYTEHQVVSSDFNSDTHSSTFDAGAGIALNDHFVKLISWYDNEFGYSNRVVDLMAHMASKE

## CC(C)CN[C@H]1CS(=O)(=O)C[C@@H]1S(=O)(=O)c1ccc(Cl)cc1 [CBR-470-1]
20 line panel
  sensitivity (IC50) versus GLO1 mRNA level: high GLO1 exhibit higher sensitivity
  sensitivity (IC50) versus NRF2 target gene expression: lower NRF2 target gene expression show increased sensitivity
IMR32 cells
  viability in synergy matrix with BBGC: synergistic effects on viability rather than additivity
IMR32
  glycolytic flux (Extracellular Acidification Rate, ECAR): reduced glycolytic flux and oxidative phosphorylation rate
  oxidative phosphorylation rate (Oxygen Consumption Rate, OCR): reduced glycolytic flux and oxidative phosphorylation rate
GAPDH
  GAPDH equilibrium: does not affect the GAPDH equilibrium alone
